Patent publication US20250205373A1, “ENRICHED AND STABLE RADIOLIGAND THERAPY FORMULATIONS AND PHARMACEUTICAL COMPOSITIONS COMPRISING SAME” (Mariana Oncology Inc., priority 2023, published 2025)
Numbered stars: 1 amine (or outer) side, 2 acyl side, 3 side chain; on linkers, the order of the positions; unused ones are H or OH. Bridge positions count the residues as written; N and C are the ends. Square brackets hold non-standard residues; d marks the D form. Side chains are listed from the residue outwards. Peptide text beside a SMILES is read from it. * marks the point of attachment. Ala(1-CH2CO2H-4-piperidyl) = N[C@@H](CC1CCN(CC(=O)O)CC1)C(=O)O; Ala(piperidin-4-yl) = O=C([C@H](CC1CCN([*:3])CC1)N[*:1])[*:2]; X1 = CC(C)[C@H](N[*:1])C(=O)C[C@@H](Cc1ccc(O)cc1)C(=O)[*:2]; DOTA = O=C(O)CN1CCN(CC(=O)O)CCN(CC(=O)*)CCN(CC(=O)O)CC1; Trp(5-F) = N[C@@H](Cc1c[nH]c2ccc(F)cc12)C(=O)O; X2 = C[C@@H](c1ccccc1)[C@H](N[*:1])C(=O)[*:2]; Val(3-OH) = CC(C)(O)[C@H](N)C(=O)O; PEG4 = NCCOCCOCCOCCOCCC(=O)O; Tle = CC(C)(C)[C@H](N)C(=O)O; hLeu = CC(C)CC[C@H](N)C(=O)O

Target: T1, B7-H3 (41 g) (Homo sapiens, UniProt Q5ZPR3)
T1 sequence (Q5ZPR3 29-534): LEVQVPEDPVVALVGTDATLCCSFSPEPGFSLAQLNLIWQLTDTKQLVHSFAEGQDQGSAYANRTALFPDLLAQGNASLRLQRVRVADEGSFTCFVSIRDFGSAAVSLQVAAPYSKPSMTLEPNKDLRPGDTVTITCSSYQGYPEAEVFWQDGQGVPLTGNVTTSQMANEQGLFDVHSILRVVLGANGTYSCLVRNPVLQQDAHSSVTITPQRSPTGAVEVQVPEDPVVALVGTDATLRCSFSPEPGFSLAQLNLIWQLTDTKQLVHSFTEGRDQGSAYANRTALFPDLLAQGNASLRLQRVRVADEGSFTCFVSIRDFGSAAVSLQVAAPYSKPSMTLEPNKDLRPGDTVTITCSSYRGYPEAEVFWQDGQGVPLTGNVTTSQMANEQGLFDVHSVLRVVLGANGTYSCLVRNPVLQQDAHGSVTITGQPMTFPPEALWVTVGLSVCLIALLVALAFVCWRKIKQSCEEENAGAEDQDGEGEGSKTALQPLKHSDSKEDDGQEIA
Test: Binding of Compound 496 to B7-H3

CC(=O)N[C@@H](CCC(C)C)C(=O)N[C@@H](Cc1ccc(O)cc1)C(=O)N[C@H]1CSSC[C@@H](C(=O)N[C@@H](Cc2c[nH]c3ccc(F)cc23)C(=O)N[C@H](C(=O)N[C@H](C(=O)N[C@H](CCC(=O)O)C(N)=O)C(C)(C)O)[C@@H](C)c2ccccc2)NC(=O)[C@H](Cc2ccc(O)cc2)CC(=O)[C@H](C(C)C)NC(=O)[C@H](CC(=O)O)NC(=O)[C@H](CC2CCN(C(=O)CCOCCOCCOCCOCCNC(=O)CN3CCN(CC(=O)O)CCN(CC(=O)O)CCN(CC(=O)O)CC3)CC2)NC(=O)[C@H](CC2CCN(CC(=O)O)CC2)NC(=O)CNC(=O)[C@H](C(C)(C)C)NC1=O [Compound 496] (Ac-[hLeu]YC[Tle]G[Ala(1-CH2CO2H-4-piperidyl)][Ala(piperidin-4-yl)]([PEG4-DOTA])D[X1]C[Trp(5-F)][X2][Val(3-OH)][dE]-NH2; disulfide 3-10)
selectivity over the 21 g isoform (B7-H3 (41 g) vs 21 g isoform): selectivity over the 21 g isoform | binding affinity (B7-H3 (41 g), the predominant form expressed by tumor cells): high affinity
